Test results published in PubChem BioAssay (NCI).
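Where inhibition never reached the appropriate level, the endpoint shown equals the highest concentration tested. Otherwise, values were interpolated linearly from a five-concentration, 48-hour dose response in 96-well plates. Abbreviation: GI50, concentration required for 50% inhibition of growth. TGI denotes the concentration required for complete inhibition of growth.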

Tests used:
Assay in all cases: DTP human tumour cell line panel, 48 h
OVCAR-4 ovarian = test system: OVCAR-4 ovarian
MDA-MB-231 breast = test system: MDA-MB-231 breast
HOP-62 NSCLC = test system: HOP-62 NSCLC
MOLT-4 leukemia = test system: MOLT-4 leukemia
HS 578T breast = test system: HS 578T breast
SK-OV-3 ovarian = test system: SK-OV-3 ovarian
HCT-116 colon = test system: HCT-116 colon
SK-MEL-28 melanoma = test system: SK-MEL-28 melanoma
A498 renal = test system: A498 renal
HT29 colon = test system: HT29 colon
RXF 393 renal = test system: RXF 393 renal
HL-60(TB) leukemia = test system: HL-60(TB) leukemia
SK-MEL-2 melanoma = test system: SK-MEL-2 melanoma
LOX IMVI melanoma = test system: LOX IMVI melanoma
DU-145 prostate = test system: DU-145 prostate
HCC-2998 colon = test system: HCC-2998 colon
RPMI-8226 leukemia = test system: RPMI-8226 leukemia
ACHN renal = test system: ACHN renal
CAKI-1 renal = test system: CAKI-1 renal
UO-31 renal = test system: UO-31 renal
UACC-62 melanoma = test system: UACC-62 melanoma
NCI-H460 lung = test system: NCI-H460 lung
SF-268 CNS = test system: SF-268 CNS
SK-MEL-5 melanoma = test system: SK-MEL-5 melanoma
SF-295 CNS = test system: SF-295 CNS
SNB-19 CNS = test system: SNB-19 CNS
OVCAR-3 ovarian = test system: OVCAR-3 ovarian
SW-620 colon = test system: SW-620 colon
OVCAR-8 ovarian = test system: OVCAR-8 ovarian
KM12 colon = test system: KM12 colon
TK-10 renal = test system: TK-10 renal
NCI-H23 lung = test system: NCI-H23 lung
MCF7 breast = test system: MCF7 breast
K-562 leukemia = test system: K-562 leukemia
BT-549 breast = test system: BT-549 breast
786-0 renal = test system: 786-0 renal
UACC-257 melanoma = test system: UACC-257 melanoma
HOP-92 NSCLC = test system: HOP-92 NSCLC
SF-539 CNS = test system: SF-539 CNS
NCI-H522 lung = test system: NCI-H522 lung
CCRF-CEM leukemia = test system: CCRF-CEM leukemia
T-47D breast = test system: T-47D breast
NCI-H226 lung = test system: NCI-H226 lung
SR leukemia = test system: SR leukemia
SNB-75 CNS = test system: SNB-75 CNS
SN12C renal = test system: SN12C renal
PC-3 prostate = test system: PC-3 prostate
A549 NSCLC = test system: A549 NSCLC
NCI/ADR-RES ovarian = test system: NCI/ADR-RES ovarian
MDA-MB-435 = test system: MDA-MB-435
MALME-3M melanoma = test system: MALME-3M melanoma
U251 CNS = test system: U251 CNS
COLO 205 colon = test system: COLO 205 colon
IGROV1 ovarian = test system: IGROV1 ovarian
HCT-15 colon = test system: HCT-15 colon
EKVX NSCLC = test system: EKVX NSCLC
OVCAR-5 ovarian = test system: OVCAR-5 ovarian

## C#CCOc1cccc(-c2nc(N)nc(Nc3ccccc3SSc3ccccc3Nc3nc(N)nc(-c4cccc(OCC#C)c4)n3)n2)c1
OVCAR-4 ovarian
  GI50: 12.9 µM
  TGI: > 33.3 µM
MDA-MB-231 breast
  GI50: 4.78 µM
  TGI: > 33.3 µM
HOP-62 NSCLC
  GI50: 0.674 µM
  TGI: 1.58 µM
MOLT-4 leukemia
  GI50: 4.45 µM
  TGI: > 33.3 µM
HS 578T breast
  GI50: 6.87 µM
  TGI: 31.7 µM
SK-OV-3 ovarian
  GI50: 13.6 µM
  TGI: > 33.3 µM
HCT-116 colon
  GI50: 2 µM
  TGI: > 33.3 µM
SK-MEL-28 melanoma
  GI50: > 33.3 µM
  TGI: > 33.3 µM
A498 renal
  GI50: 6.58 µM
  TGI: > 33.3 µM
HT29 colon
  GI50: > 33.3 µM
  TGI: > 33.3 µM
RXF 393 renal
  GI50: 33.1 µM
  TGI: > 33.3 µM
HL-60(TB) leukemia
  GI50: 9.92 µM
  TGI: > 33.3 µM
SK-MEL-2 melanoma
  GI50: 16.9 µM
  TGI: > 33.3 µM
LOX IMVI melanoma
  GI50: 0.746 µM
  TGI: 1.8 µM
DU-145 prostate
  GI50: 10.6 µM
  TGI: > 33.3 µM
HCC-2998 colon
  GI50: > 33.3 µM
  TGI: > 33.3 µM
RPMI-8226 leukemia
  GI50: 1.55 µM
  TGI: 17.1 µM
ACHN renal
  GI50: 1.19 µM
  TGI: 4.35 µM
CAKI-1 renal
  GI50: 3.78 µM
  TGI: 14.2 µM
UO-31 renal
  GI50: 1.51 µM
  TGI: 5.81 µM
UACC-62 melanoma
  GI50: 5.43 µM
  TGI: 13.3 µM
NCI-H460 lung
  GI50: 1.72 µM
  TGI: 8.37 µM
SF-268 CNS
  GI50: 3.94 µM
  TGI: 12.1 µM
SK-MEL-5 melanoma
  GI50: 9.94 µM
  TGI: > 33.3 µM
SF-295 CNS
  GI50: 0.751 µM
  TGI: 1.93 µM
SNB-19 CNS
  GI50: 7.37 µM
  TGI: > 33.3 µM
OVCAR-3 ovarian
  GI50: 18.2 µM
  TGI: > 33.3 µM
SW-620 colon
  GI50: 14.3 µM
  TGI: > 33.3 µM
OVCAR-8 ovarian
  GI50: 2.42 µM
  TGI: 12.9 µM
KM12 colon
  GI50: 1.69 µM
  TGI: 11.1 µM
TK-10 renal
  GI50: 13.1 µM
  TGI: > 33.3 µM
NCI-H23 lung
  GI50: 1.95 µM
  TGI: 10.4 µM
MCF7 breast
  GI50: 17.1 µM
  TGI: > 33.3 µM
K-562 leukemia
  GI50: 8.03 µM
  TGI: > 33.3 µM
BT-549 breast
  GI50: 8.52 µM
  TGI: > 33.3 µM
786-0 renal
  GI50: 21.2 µM
  TGI: > 33.3 µM
UACC-257 melanoma
  GI50: 29.7 µM
  TGI: > 33.3 µM
HOP-92 NSCLC
  GI50: 7.77 µM
  TGI: > 33.3 µM
SF-539 CNS
  GI50: 11.1 µM
  TGI: > 33.3 µM
NCI-H522 lung
  GI50: 8.13 µM
  TGI: > 33.3 µM
CCRF-CEM leukemia
  GI50: 2.64 µM
  TGI: > 33.3 µM
T-47D breast
  GI50: 3.29 µM
  TGI: > 33.3 µM
NCI-H226 lung
  GI50: 4.52 µM
  TGI: > 33.3 µM
SR leukemia
  GI50: 1.41 µM
  TGI: > 33.3 µM
SNB-75 CNS
  GI50: 8.99 µM
  TGI: 31.3 µM
SN12C renal
  GI50: 0.971 µM
  TGI: 5.37 µM
PC-3 prostate
  GI50: 1.61 µM
  TGI: > 33.3 µM
A549 NSCLC
  GI50: 1.1 µM
  TGI: 4.49 µM
NCI/ADR-RES ovarian
  GI50: 1.89 µM
  TGI: 8.56 µM
MDA-MB-435
  GI50: 14.4 µM
  TGI: > 33.3 µM
MALME-3M melanoma
  GI50: > 33.3 µM
  TGI: > 33.3 µM
U251 CNS
  GI50: 1.08 µM
  TGI: 3.82 µM
COLO 205 colon
  GI50: > 33.3 µM
  TGI: > 33.3 µM
IGROV1 ovarian
  GI50: 1.73 µM
  TGI: 24.2 µM
HCT-15 colon
  GI50: 2.31 µM
  TGI: > 33.3 µM
EKVX NSCLC
  GI50: 7.19 µM
  TGI: > 33.3 µM
OVCAR-5 ovarian
  GI50: 7.32 µM
  TGI: 28.2 µM
